Active and inactive are the calls of the source. The rule behind the calls is not given here.

These results are taken from PubChem BioAssay AID1259407 (Chemical Carcinogenesis Research Information System (CCRIS), 2018).

The data set deals with CCRIS mutagenicity, Ames/micronucleus/aberration tests. Nature of the data set: CCRIS mutagenicity studies.
Setting [1] is: Test System: AMES SALMONELLA TYPHIMURIUM, Strain/Indicator: TA100, Metabolic Activation: NONE, Method: STANDARD PLATE.
The mark [2] stands for this setting: Test System: AMES SALMONELLA TYPHIMURIUM, Strain/Indicator: TA100, Metabolic Activation: S-9, Method: STANDARD PLATE.
The mark [3] stands for this setting: Test System: AMES SALMONELLA TYPHIMURIUM, Strain/Indicator: TA1537, Metabolic Activation: NONE, Method: STANDARD PLATE.
Where [4] appears, read: Test System: AMES SALMONELLA TYPHIMURIUM, Strain/Indicator: TA98, Metabolic Activation: NONE, Method: STANDARD PLATE.
Where [5] appears, read: Test System: AMES SALMONELLA TYPHIMURIUM, Strain/Indicator: TA98, Metabolic Activation: HAMSTER, LIVER, S-9, AROCLOR 1254, Method: STANDARD PLATE.
The mark [6] stands for this setting: Test System: AMES SALMONELLA TYPHIMURIUM, Strain/Indicator: TA98, Metabolic Activation: RAT, LIVER, S-9, AROCLOR 1254, Method: STANDARD PLATE.
Setting [7] is: Test System: AMES SALMONELLA TYPHIMURIUM, Strain/Indicator: TA100, Metabolic Activation: HAMSTER, LIVER, S-9, AROCLOR 1254, Method: STANDARD PLATE.
[8] abbreviates: Test System: AMES SALMONELLA TYPHIMURIUM, Strain/Indicator: TA100, Metabolic Activation: RAT, LIVER, S-9, AROCLOR 1254, Method: STANDARD PLATE.
[9] abbreviates: Test System: AMES SALMONELLA TYPHIMURIUM, Strain/Indicator: TA1535, Metabolic Activation: HAMSTER, LIVER, S-9, AROCLOR 1254, Method: STANDARD PLATE.
Where [10] appears, read: Test System: AMES SALMONELLA TYPHIMURIUM, Strain/Indicator: TA1535, Metabolic Activation: NONE, Method: STANDARD PLATE.
The mark [11] stands for this setting: Test System: AMES SALMONELLA TYPHIMURIUM, Strain/Indicator: TA1535, Metabolic Activation: RAT, LIVER, S-9, AROCLOR 1254, Method: STANDARD PLATE.
Setting [12] is: Test System: AMES SALMONELLA TYPHIMURIUM, Strain/Indicator: TA1537, Metabolic Activation: HAMSTER, LIVER, S-9, AROCLOR 1254, Method: STANDARD PLATE.
Where [13] appears, read: Test System: AMES SALMONELLA TYPHIMURIUM, Strain/Indicator: TA1537, Metabolic Activation: RAT, LIVER, S-9, AROCLOR 1254, Method: STANDARD PLATE.
Setting [14] is: Test System: AMES SALMONELLA TYPHIMURIUM, Strain/Indicator: TA1538, Metabolic Activation: HAMSTER, LIVER, S-9, AROCLOR 1254, Method: STANDARD PLATE.
The mark [15] stands for this setting: Test System: AMES SALMONELLA TYPHIMURIUM, Strain/Indicator: TA1538, Metabolic Activation: NONE, Method: STANDARD PLATE.
The mark [16] stands for this setting: Test System: AMES SALMONELLA TYPHIMURIUM, Strain/Indicator: TA1538, Metabolic Activation: RAT, LIVER, S-9, AROCLOR 1254, Method: STANDARD PLATE.

Consider `CCCCCCCC(=O)Nc1snc2ccccc12`, for which the mutagenic call runs as follows: under setting [1], “inactive; negative”; under setting [2], “inactive; negative”; under setting [3], “inactive; negative”; (Test System: AMES SALMONELLA TYPHIMURIUM, Strain/Indicator: TA1537, Metabolic Activation: S-9, Method: STANDARD PLATE) “inactive; negative”.
As to `O=C(N=c1sn(C(=O)c2ccccc2[N+](=O)[O-])c2ccc([N+](=O)[O-])cc12)c1ccccc1[N+](=O)[O-]`, under setting [2], the mutagenic call is “active; positive”.
In the case of `N=C(N)c1ccc2cc(C(=N)N)[nH]c2c1`, the mutagenic call runs as follows: under setting [4], “inactive; negative”; (Test System: AMES SALMONELLA TYPHIMURIUM, Strain/Indicator: TA98, Metabolic Activation: RAT, LIVER, S-9, PHENOBARBITAL, Method: STANDARD PLATE) “inactive; negative”; under setting [1], “inactive; negative”; (Test System: AMES SALMONELLA TYPHIMURIUM, Strain/Indicator: TA100, Metabolic Activation: RAT, LIVER, S-9, PHENOBARBITAL, Method: STANDARD PLATE) “inactive; negative”.
For `Cc1ccc2[nH]c3c(C)cc([N+](=O)[O-])c(C)c3c2c1`, the mutagenic call is “active; positive” under setting [4]; “active; positive” (Test System: AMES SALMONELLA TYPHIMURIUM, Strain/Indicator: TA98, Metabolic Activation: RAT LIVER S-9, AROCLOR 1254, Method: STANDARD PLATE); “inactive; negative” under setting [1]; “inactive; negative” (Test System: AMES SALMONELLA TYPHIMURIUM, Strain/Indicator: TA100, Metabolic Activation: RAT LIVER S-9, AROCLOR 1254, Method: STANDARD PLATE); “active; positive” (Test System: AMES SALMONELLA TYPHIMURIUM, Strain/Indicator: TA1537, Metabolic Activation: RAT LIVER S-9, AROCLOR 1254, Method: STANDARD PLATE); “inactive; negative” (Test System: AMES SALMONELLA TYPHIMURIUM, Strain/Indicator: TA1977, Metabolic Activation: NONE, Method: STANDARD PLATE). The mutagenic call (Test System: AMES SALMONELLA TYPHIMURIUM, Strain/Indicator: TA1977, Metabolic Activation: RAT LIVER S-9, AROCLOR 1254, Method: STANDARD PLATE) is “active; positive”.
Regarding `CC(=O)C1=CC[C@H]2C3=CCC4=C[C@@H](O)[C@H](O)C[C@]4(C)C3C[C@@H](O)[C@]12C` (stereo not given in full), the mutagenic call is “inactive; negative” (Test System: AMES SALMONELLA TYPHIMURIUM, Strain/Indicator: TM677, Metabolic Activation: NONE, Method: STANDARD PLATE); “inactive; negative” (Test System: AMES SALMONELLA TYPHIMURIUM, Strain/Indicator: TM677, Metabolic Activation: RAT, LIVER, S-9, AROCLOR 1254, Method: STANDARD PLATE); “inactive; negative” (Test System: CHINESE HAMSTER OVARY, Strain/Indicator: CHO/6-THIOGUANINE, Metabolic Activation: NONE, Method: STANDARD PLATE).
On to `O=Cc1ccccc1[N+](=O)[O-]`, for which the mutagenic call under setting [5] is “inactive; negative”; the mutagenic call (Test System: AMES SALMONELLA TYPHIMURIUM, Strain/Indicator: TA98, Metabolic Activation: NONE, Method: PREINCUBATION) is “inactive; negative”; the mutagenic call under setting [4] is “inactive; negative”; the mutagenic call under setting [6] is “inactive; negative”; the mutagenic call (Test System: AMES SALMONELLA TYPHIMURIUM, Strain/Indicator: TA98, Metabolic Activation: RAT, LIVER, S-9, KANECHLOR 500, Method: PREINCUBATION) was “inactive; negative”; the mutagenic call (Test System: AMES SALMONELLA TYPHIMURIUM, Strain/Indicator: TA98, Method: PREINCUBATION) was “inactive; negative”. Besides, the mutagenic call under setting [7] is “inactive; negative”; the mutagenic call (Test System: AMES SALMONELLA TYPHIMURIUM, Strain/Indicator: TA100, Metabolic Activation: NONE, Method: PREINCUBATION) is “inactive; negative”; the mutagenic call under setting [1] was “inactive; negative”; the mutagenic call under setting [8] is “inactive; negative”; the mutagenic call (Test System: AMES SALMONELLA TYPHIMURIUM, Strain/Indicator: TA100, Metabolic Activation: RAT, LIVER, S-9, KANECHLOR 500, Method: PREINCUBATION) was “inactive; negative”; the mutagenic call (Test System: AMES SALMONELLA TYPHIMURIUM, Strain/Indicator: TA100, Method: PREINCUBATION) is “inactive; negative”. The mutagenic call runs as follows: under setting [9], “inactive; negative”; (Test System: AMES SALMONELLA TYPHIMURIUM, Strain/Indicator: TA1535, Metabolic Activation: NONE, Method: PREINCUBATION) “inactive; negative”; under setting [10], “inactive; negative”; under setting [11], “inactive; negative”; (Test System: AMES SALMONELLA TYPHIMURIUM, Strain/Indicator: TA1535, Method: PREINCUBATION) “inactive; negative”; under setting [12], “inactive; negative”. Besides, the mutagenic call runs as follows: (Test System: AMES SALMONELLA TYPHIMURIUM, Strain/Indicator: TA1537, Metabolic Activation: NONE, Method: PREINCUBATION) “inactive; negative”; under setting [3], “inactive; negative”; under setting [13], “inactive; negative”; (Test System: AMES SALMONELLA TYPHIMURIUM, Strain/Indicator: TA1537, Method: PREINCUBATION) “inactive; negative”; under setting [14], “inactive; negative”; (Test System: AMES SALMONELLA TYPHIMURIUM, Strain/Indicator: TA1538, Metabolic Activation: NONE, Method: PREINCUBATION) “inactive; negative”. In addition, the mutagenic call under setting [15] was “inactive; negative”; the mutagenic call under setting [16] was “inactive; negative”; the mutagenic call (Test System: AMES SALMONELLA TYPHIMURIUM, Strain/Indicator: TA1538, Method: PREINCUBATION) was “inactive; negative”; the mutagenic call (Test System: Mouse lymphoma, Strain/Indicator: L5178Y (tk+/tk-), Metabolic Activation: None, Method: Suspension/plate) was “inactive; negative”; the mutagenic call (Test System: Mouse lymphoma, Strain/Indicator: L5178Y (tk+/tk-), Metabolic Activation: Rat, Liver, S-9, Aroclor 1254, Method: Suspension/plate) is “inactive; negative”.
On to `O=C(O)/C=C/c1ccc(O)c(O)c1`, for which the mutagenic call under setting [5] was “inactive; negative”; the mutagenic call under setting [4] is “inactive; negative”; the mutagenic call under setting [6] was “inactive; negative”; the mutagenic call under setting [7] was “inactive; negative”; the mutagenic call under setting [1] was “inactive; negative”; the mutagenic call under setting [8] was “inactive; negative”. In addition, the mutagenic call under setting [9] was “inactive; negative”; the mutagenic call under setting [10] is “inactive; negative”; the mutagenic call under setting [11] was “inactive; negative”; the mutagenic call under setting [12] is “inactive; negative”; the mutagenic call under setting [3] is “inactive; negative”; the mutagenic call under setting [13] was “inactive; negative”. The mutagenic call under setting [14] was “inactive; negative”; the mutagenic call under setting [15] was “inactive; negative”; the mutagenic call under setting [16] is “inactive; negative”; the mutagenic call (Test System: MOUSE LYMPHOMA, Strain/Indicator: L5178Y (TK+/TK-), Metabolic Activation: NONE, Method: SUSPENSION/PLATE) is “active; positive. reevaluation of results: positive”; the mutagenic call (Test System: MOUSE LYMPHOMA, Strain/Indicator: L5178Y (TK+/TK-), Metabolic Activation: RAT, LIVER, S-9, AROCLOR 1254, Method: SUSPENSION/PLATE) was “inactive; negative; reevaluation of results: negative”.
